Test results: ChEMBL document CHEMBL1909046, “DrugMatrix in vitro pharmacology data”

Legend:
[1] = target: T1, Amine oxidase [flavin-containing] A (Homo sapiens, UniProt P21397); test: DRUGMATRIX: Monoamine Oxidase MAO-A enzyme inhibition (substrate: Kynuramine); parameters: species or system BTI-TN-5B1-4; settings: bti-tn-5b1-4; Not Active = under 50% inhibition at 10 µM
T1 sequence (P21397 whole entry): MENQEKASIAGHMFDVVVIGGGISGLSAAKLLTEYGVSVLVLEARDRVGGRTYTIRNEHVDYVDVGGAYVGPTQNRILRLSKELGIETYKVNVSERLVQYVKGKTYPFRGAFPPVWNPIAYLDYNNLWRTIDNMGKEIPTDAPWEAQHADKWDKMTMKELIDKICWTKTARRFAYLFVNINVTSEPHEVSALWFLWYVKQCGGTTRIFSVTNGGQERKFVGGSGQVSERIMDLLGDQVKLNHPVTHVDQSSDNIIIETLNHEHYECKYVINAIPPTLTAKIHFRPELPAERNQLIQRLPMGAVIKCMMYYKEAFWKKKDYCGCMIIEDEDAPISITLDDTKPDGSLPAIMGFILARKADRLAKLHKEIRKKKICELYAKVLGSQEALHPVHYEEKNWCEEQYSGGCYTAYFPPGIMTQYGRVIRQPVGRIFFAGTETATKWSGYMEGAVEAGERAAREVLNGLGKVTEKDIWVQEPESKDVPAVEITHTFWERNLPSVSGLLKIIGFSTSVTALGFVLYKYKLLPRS

[2] = DRUGMATRIX: Glutamate, AMPA radioligand binding (ligand: [3H] AMPA); assay type: cell membranes, Rattus norvegicus, Wistar, Cerebral cortex, Membrane; settings: Not Active = under 50% inhibition at 10 µM
[3] = DRUGMATRIX: GABAA, Chloride Channel, TBOB radioligand binding (ligand: [3H] TBOB); assay type: cell membranes, Rattus norvegicus, Wistar, Cerebral cortex, Membrane; settings: Not Active = under 50% inhibition at 10 µM
[4] = target: Sigma non-opioid intracellular receptor 1 (Homo sapiens, UniProt Q99720); test: DRUGMATRIX: Sigma1 radioligand binding (ligand: [3H] Haloperidol); assay type: cell membranes, Jurkat, Membrane; settings: jurkat; Not Active = under 50% inhibition at 10 µM
[5] = DRUGMATRIX: Calcium Channel Type L, Dihydropyridine radioligand binding (ligand: [3H] Nitrendipine); assay type: cell membranes, Rattus norvegicus, Wistar, Cerebral cortex, Membrane; settings: Not Active = under 50% inhibition at 10 µM
Progesterone receptor = target: T2, Progesterone receptor (Bos taurus, UniProt Q690N0); test: DRUGMATRIX: Progesterone radioligand binding (ligand: [3H] R-5020); assay type: tissue-based, Uterus; settings: Not Active = under 50% inhibition at 10 µM
T2 sequence (Q690N0 whole entry): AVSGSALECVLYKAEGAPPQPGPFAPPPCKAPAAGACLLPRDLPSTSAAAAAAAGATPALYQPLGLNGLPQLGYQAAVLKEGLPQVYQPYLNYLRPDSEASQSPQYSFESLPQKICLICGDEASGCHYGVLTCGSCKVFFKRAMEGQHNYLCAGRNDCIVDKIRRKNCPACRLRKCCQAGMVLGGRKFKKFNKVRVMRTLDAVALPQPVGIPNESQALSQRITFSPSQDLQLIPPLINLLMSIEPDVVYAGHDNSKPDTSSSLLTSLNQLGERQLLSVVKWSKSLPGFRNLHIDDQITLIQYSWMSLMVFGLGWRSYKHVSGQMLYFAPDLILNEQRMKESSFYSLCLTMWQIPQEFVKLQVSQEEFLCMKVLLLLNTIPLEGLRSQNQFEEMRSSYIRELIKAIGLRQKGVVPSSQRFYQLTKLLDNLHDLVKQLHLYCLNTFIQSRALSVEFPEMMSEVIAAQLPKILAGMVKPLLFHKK

Chain of Sigma non-opioid intracellular receptor 1 (Q99720 whole entry): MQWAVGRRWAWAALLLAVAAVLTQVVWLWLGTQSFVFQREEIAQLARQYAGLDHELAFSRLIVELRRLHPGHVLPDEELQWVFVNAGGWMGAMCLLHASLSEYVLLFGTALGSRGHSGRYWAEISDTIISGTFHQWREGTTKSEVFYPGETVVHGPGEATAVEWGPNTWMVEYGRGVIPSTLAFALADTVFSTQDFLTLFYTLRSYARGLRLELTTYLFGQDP

CCCNC(=O)NS(=O)(=O)c1ccc(Cl)cc1 [CHLORPROPAMIDE]
Not Active: IC50 [1] | IC50 [2] | Ki [2] | IC50 [3] | Ki [3] | IC50 [4] | IC50 [5] | Ki [5] | IC50 (Progesterone receptor)

NS(=O)(=O)c1cc(C2(O)NC(=O)c3ccccc32)ccc1Cl (stereo unspecified) [CHLORTHALIDONE]
Not Active: IC50 [1] | IC50 [2] | Ki [2] | IC50 [3] | Ki [3] | IC50 [4] | IC50 [5] | Ki [5] | IC50 (Progesterone receptor)

O=C(O)CC(O)(CC(=O)O)C(=O)O [CITRIC ACID]
Not Active: IC50 [1] | IC50 [2] | Ki [2] | IC50 [3] | Ki [3] | IC50 [4] | IC50 [5] | Ki [5] | IC50 (Progesterone receptor)

CC(C)NCC(O)c1ccccc1Cl (stereo unspecified) [CLORPRENALINE]
Not Active: IC50 [1] | IC50 [2] | Ki [2] | IC50 [3] | Ki [3] | IC50 [4] | IC50 [5] | Ki [5] | IC50 (Progesterone receptor)

CN1C[C@@H]2C[C@H]1CN2c1cc2c(cc1F)c(=O)c(C(=O)O)cn2C1CC1 [DANOFLOXACIN]
Not Active: IC50 [1] | IC50 [2] | Ki [2] | IC50 [3] | Ki [3] | IC50 [4] | IC50 [5] | Ki [5] | IC50 (Progesterone receptor)

COc1cccc2c1C(=O)c1c(O)c3c(c(O)c1C2=O)C[C@@](O)(C(C)=O)C[C@@H]3O[C@H]1C[C@H](N)[C@H](O)[C@H](C)O1 [DAUNORUBICIN]
Not Active: IC50 [1] | IC50 [2] | Ki [2] | IC50 [3] | Ki [3] | IC50 [4] | IC50 [5] | Ki [5] | IC50 (Progesterone receptor)

O=C(O)c1cc(-c2ccc(F)cc2F)ccc1O [DIFLUNISAL]
Not Active: IC50 [1] | IC50 [2] | Ki [2] | IC50 [3] | Ki [3] | IC50 [4] | IC50 [5] | Ki [5] | IC50 (Progesterone receptor)

C[S+](C)[O-] [DIMETHYL SULFOXIDE]
Not Active: IC50 [1] | IC50 [2] | Ki [2] | IC50 [3] | Ki [3] | IC50 [4] | IC50 [5] | Ki [5] | IC50 (Progesterone receptor)

CC1=NN(c2ccccc2)C(=O)C1 [EDARAVONE]
Not Active: IC50 [1] | IC50 [2] | Ki [2] | IC50 [3] | Ki [3] | IC50 [4] | IC50 [5] | Ki [5] | IC50 (Progesterone receptor)
